{
  "source": "paper PMC10392864",
  "about": "“Chukrasia tabularis limonoid plays anti-inflammatory role by regulating NF-κB signaling pathway in lipopolysaccharide-induced macrophages” (Food & Nutrition Research, 2023)",
  "key": {"[1]": {"tested_on": "LPS-induced NO production in RAW264.7 cells", "assay": "LPS-induced NO production in RAW264.7 cells (Griess reaction)", "assay_type": "cell-based", "method": "The inhibitory activities of compounds 1–16 on LPS stimulated macrophages was determined by Griess reaction. The NO content was detected by the NO kit according to the protocol described earlier ([23]). RAW264.7 cells obtained from the China Center for Cultivated Studies (Shanghai, China) were maintained in DMEM containing 10% FBS, and under 5% CO2 at 37°C. Briefly, the cells were seeded in a 96-well plate (1 × 10^5 cells/well), after 8 h of pre-incubation under 5% CO2 at 37°C, compounds 1–16 were added to the well plate, respectively, for 12 h. […] The supernatant of the cell culture were collected 24 h later."}, "RAW264.7 cells": {"tested_on": "RAW264.7 cells", "assay": "RAW264.7 cell viability, SRB assay", "assay_type": "cell-based", "method": "The cytotoxicity of limonin 2 to RAW264.7 cells was detected by SRB assay. […] Therefore, compound 2 of 0–20 μm was used in subsequent experiments to avoid the influence of cytotoxic and anti-inflammatory effect detection.\nFig. 2 Effect of compound 2 on RAW264.7 cells viability. RAW264.7 cells were treated by assigned concentration of compound 2 or DMSO for 24 h. The data are expressed as the mean ± SEM (n = 3). The cells viability (%) = (ODcompound 2 – ODDMSO)/ODDMSO ×100. *P < 0.05,**P < 0.01 compared with control cells treated by DMSO. Statistical differences were analyzed by unpaired t-test."}, "IL-6": {"tested_on": "IL-6", "assay": "IL-6 production in LPS-induced macrophages, ELISA", "assay_type": "cell-based", "conditions": "compound 2 at 2.3 and 9.2 μmol/L, LPS 1 μg/mL, 24 h, Fig. 3C", "method": "(§1) After 8 h of pre-incubation under 5% CO2 at 37°C, limonin 2 was added to the well plate, respectively, for 12 h. Then the cell of administration group and model group were induced with LPS (2 µg/mL) and the control group was treated with DMSO as contrast. The cell supernatants of samples were collected to detect the content of IL-6 and TNF-α by ELISA according to manufacturer protocol. And the normal range of IL-6 and TNF-αELISA kits is 3.75–120 pg/mL and 20–640 pg/mL, respectively.\n(§2) Fig. 3 Effects of compound 2 on the production of TNF-α, NO and IL-6 in LPS-induced macrophages. The macrophages were incubated with LPS (1 μg/mL) and treated with compound 2 (2.3 and 9.2 μmol/L) for 24 h. Indomethacin (INM) was used as the positive control. (A) The levels of TNF-α, (B) NO, and (C) IL-6 in the supernatant were assayed using ELISA kits. All values given are the mean ± SEM. *P <0.05, **P <0.01 compared with the LPS group."}, "TNF-α": {"tested_on": "TNF-α", "assay": "TNF-α production in LPS-induced macrophages, ELISA", "assay_type": "cell-based", "conditions": "compound 2 at 2.3 and 9.2 μmol/L, LPS 1 μg/mL, 24 h, Fig. 3A", "method": "as §1, §2"}, "NF-κB p-P65": {"tested_on": "NF-κB p-P65", "assay": "Western blot, NF-κB p-P65 in LPS-treated macrophages", "assay_type": "cell-based", "conditions": "Fig. 4", "method": "(§3) Western blot analysis was performed to observe the activities of limonin 2 on NF-κB P65, JAK, STAT, IKBα, IKKα, iNOS and eNOS protein levels. Macrophages were dispersed in 6 well plates for 24 h. After incubation, the cells were processed by HFPS and treated with LPS for 24 h. After treatment, cells were harvested and lysed. Western blot analysis was based on the methods described previously ([24]).\n(§4) The NF-κB signaling cascade plays an important role in the adjustment of inflammation ([43], [44]). The expression of NF-κB P65, IKB, and IKKα were measured by Western blot to investigate the anti-inflammatory mechanism of limonin 2. […] Limonin 2 inhibited the phosphorylation and degradation of IKBα (Fig. 4A, D and E) and IKKα (Fig. 4A, F and G)."}, "IKBα": {"tested_on": "IKBα", "assay": "Western blot, IKBα in LPS-treated macrophages", "assay_type": "cell-based", "conditions": "Fig. 4", "method": "as §3, §4"}, "IKKα": {"tested_on": "IKKα", "assay": "Western blot, IKKα in LPS-treated macrophages", "assay_type": "cell-based", "conditions": "Fig. 4", "method": "as §3, §4"}, "JAK2": {"tested_on": "JAK2", "assay": "Western blot, JAK2 in LPS-treated macrophages", "assay_type": "cell-based", "conditions": "LPS-treated RAW264.7 cells, Fig. 5", "method": "as §3\n(§5) To study the effect of limonin 2 on the STAT signaling cascades of LPS-treated macrophage, the levels of JAK2 and STAT3 was measured ([45])."}, "STAT3": {"tested_on": "STAT3", "assay": "Western blot, STAT3 in LPS-treated macrophages", "assay_type": "cell-based", "conditions": "LPS-treated RAW264.7 cells, Fig. 5", "method": "as §3, §5"}, "iNOS": {"tested_on": "iNOS", "assay": "Western blot, iNOS in LPS-treated macrophages", "assay_type": "cell-based", "conditions": "Fig. 6", "method": "as §3\n(§6) To study the effect of limonin 2 on eNOS signaling cascade on LPS treated macrophages ([46]), the level of eNOS was measured. The upregulation of iNOS expression in LPS-treated macrophage was observed (Fig. 6A and B). Compound 2 inhibited the expression of iNOS stimulated by LPS in macrophage. At the same time, downregulation of eNOS protein expression was also found in LPS-stimulated macrophages (Fig. 6A and C)."}, "eNOS": {"tested_on": "eNOS", "assay": "Western blot, eNOS in LPS-treated macrophages", "assay_type": "cell-based", "conditions": "LPS-stimulated macrophages, Fig. 6", "method": "as §3, §6"}, "[2]": {"assay": "Cytotoxicity, SRB method, Huh-7", "assay_type": "cell-based, human", "conditions": "human, Huh-7 (hepatoma) cells", "method": "(§7) Huh-7 (hepatoma), MCF-7 (human breast), KB (oral epithelial), Hela (cervical), H460 (lung), A-549 (lung), and HepG2 (hepatocellular) cancer cell lines (provided by Shanghai Cell Bank) were maintained in RPMI 1640 at 37 ℃, supplemented with 10% FBS. Cytotoxicity was determined by the SRB method, with 5-fluorouracil (5-FU) as a positive control. The IC50 value was calculated using the GraphPad prism program."}, "[3]": {"assay": "Cytotoxicity, SRB method, HepG2", "assay_type": "cell-based, human", "conditions": "human, HepG2 (hepatocellular) cells", "method": "as §7"}, "[4]": {"assay": "Cytotoxicity, SRB method, KB", "assay_type": "cell-based, human", "conditions": "human, KB (oral epithelial) cells", "method": "as §7"}, "[5]": {"assay": "Cytotoxicity, SRB method, H460", "assay_type": "cell-based, human", "conditions": "human, H460 (lung) cells", "method": "as §7"}, "[6]": {"assay": "Cytotoxicity, SRB method, Hela", "assay_type": "cell-based, human", "conditions": "human, Hela (cervical) cells", "method": "as §7"}, "[7]": {"assay": "Cytotoxicity, SRB method, A549", "assay_type": "cell-based, human", "conditions": "human, A-549 (lung) cells", "method": "as §7"}, "[8]": {"assay": "Cytotoxicity, SRB method, MCF-7", "assay_type": "cell-based, human", "conditions": "human, MCF-7 (human breast) cells", "method": "as §7"}},
  "note": "Values joined by “and” are separate entries in the source; they are usually repeats but may differ in a detail not shown here. Equal entries are not always repeated.",
  "data": [
    {"smiles": "CCC(=O)OC1C2(O)C(OC(=O)C=CC(C)C)C3(C)CC24OC2(C)OC15C1CC(=O)OC(C6=CC(O)OC6=O)C1(C)CCC5(O2)C4(C)C3CC(=O)OC", "note": "(centres unmarked) [Compound 2, Chukrasin F]", "values": [
      {"measurement": "IC50", "setting": "[1]; Mus musculus, RAW264.7 cells, LPS 2 µg/mL, supernatant after 24 h, read-out: IC50, inhibitory activity on LPS-induced NO production in RAW264.7 cells", "value": "4.58 ± 0.72", "unit": "µM"},
      {"measurement": "production of NO in LPS-treated macrophages (in words)", "setting": "[1]; compound 2 at 2.3 and 9.2 μmol/L, LPS 1 μg/mL, 24 h, Fig. 3B", "value": "notably inhibited"},
      {"measurement": "viability of RAW264.7 cells (in words)", "setting": "RAW264.7 cells; compound 2 at 0–20 μm, within 24 h", "value": "not notably affected"},
      {"measurement": "relative survival rate of RAW264.7 cells", "setting": "RAW264.7 cells; limonin 2 at 5 ~ 200 μM (seven rising concentrations, not listed singly), 24 h, SRB", "value": "100.7% and 96.3% and 93.9% and 88.0% and 76.4% and 64.4% and 56.7%"},
      {"measurement": "production of IL-6 in LPS-treated macrophages (in words)", "setting": "IL-6", "value": "notably inhibited"},
      {"measurement": "production of TNF-α in LPS-treated macrophages (in words)", "setting": "TNF-α", "value": "notably inhibited"},
      {"measurement": "expression of NF-κB p-P65 (in words)", "setting": "NF-κB p-P65", "value": "downregulates"},
      {"measurement": "phosphorylation and degradation of IKBα (in words)", "setting": "IKBα", "value": "inhibited"},
      {"measurement": "phosphorylation and degradation of IKKα (in words)", "setting": "IKKα", "value": "inhibited"},
      {"measurement": "expression level of JAK2 (in words)", "setting": "JAK2", "value": "notably reduced"},
      {"measurement": "expression level of STAT3 (in words)", "setting": "STAT3", "value": "notably reduced"},
      {"measurement": "expression of iNOS stimulated by LPS (in words)", "setting": "iNOS", "value": "inhibited"},
      {"measurement": "eNOS protein expression (in words)", "setting": "eNOS", "value": "completely restored"},
      {"measurement": "IC50", "setting": "[2]", "value": "72.1 ± 13.5", "unit": "µM"},
      {"measurement": "IC50", "setting": "[3]", "value": "69.4 ± 10.6", "unit": "µM"},
      {"measurement": "IC50", "setting": "[4]", "value": "39.2 ± 2.17", "unit": "µM"},
      {"measurement": "IC50", "setting": "[5]", "value": "60.8 ± 6.96", "unit": "µM"},
      {"measurement": "IC50", "setting": "[6]", "value": "33.2 ± 8.41", "unit": "µM"},
      {"measurement": "IC50", "setting": "[7]", "value": "54.7 ± 10.1", "unit": "µM"},
      {"measurement": "IC50", "setting": "[8]", "value": "23.4 ± 5.81", "unit": "µM"}
    ]}
  ]
}
